From patent US20250179022A1, “COMPOUND USED AS TYK2 INHIBITOR, PREPARATION METHOD THEREFOR, AND PHARMACEUTICAL USE THEREOF” (SHANGHAI ZHIGEN PHARMACEUTICAL & TECHNOLOGY CO. LTD., priority 2022, published 2025)
In brackets after ≈: the same amount, converted by molar mass. Like-named read-outs stand apart in the source and are kept apart here.

Legend:
JAK2 = target: T1, JAK2 (Homo sapiens, UniProt O60674, cells depend on it, form not given); test: JAK family kinase selectivity assay, Ba/F3-TEL-JAK2 cell proliferation; assay type: cell-based; details: read-out: Ba/F3 Cell IC50 JAK2; Ba/F3-TEL-JAK2, 72 h
T1 construct: fused on or other part: N-terminal part of TEL (ETV6) as oligomerising partner; it is the second protein of the fusion and part of the key; P41212 (Transcription factor ETV6)
From the text: (§1) There are four kinases in the JAK family, respectively TYK2, JAK1, JAK2 and JAK3. JAK family kinase genes were introduced into the wild-type murine B lymphocytes (BaF3), and four BaF3 engineered cell lines were constructed respectively (Ba/F3-FL-TYK2-E957D, Ba/F3-TEL-JAK1, Ba/F3-TEL-JAK2, Ba/F3-TEL-JAK3). The growth and proliferation of these engineered cell lines were not dependent on IL-3, but on exogenously transferred JAK family kinases.
(§2) In this experiment, the inhibitory effects of the compounds on the proliferation of four cell types, Ba/F3-FL-TYK2-E957D, Ba/F3-TEL-JAK1, Ba/F3-TEL-JAK2, and Ba/F3-TEL-JAK3 were tested, and apoptosis was detected, and the IC50 values were calculated. The inhibitory activities of the compounds against TYK2, JAK1, JAK2, and JAK3 kinases were evaluated based on the IC50 value, thus assessing the JAK family kinase selectivity of the compounds.
(§3) The tested compounds, powder and stored at room temperature, were prepared into 10 mM stock solution with DMSO and stored at −20° C. away from light for use.
(§4) Compounds were formulated into dilute solutions which was 1000 times of the final concentration. The compound was prepared into 20-times of final concentration by diluting the compound with culture medium. 2 ul of 1000-times compound was added per well to 98 ul of culture medium.
(§5) Cells (provided by Sundia Pharmaceutical Technology (Shanghai) Co., Ltd.) were resuspended and counted using an automated cell counter. The cell suspension was diluted to the desired density based on BaF3 seeding density of 2000 cells per well. Each well was plated with 95 ul of cells and incubated at 37° C. for stable equilibrium. […]
(§6) The cell plate was equilibrated to room temperature. […] Detected with SpectraMax Paradigm.
(§7) • (1) IC50 was calculated using GraphPad Prism 5. • (2) % Inh=(Max signal-Compound signal)/(Max signal-Min signal)×100. • (3) Max signal was the positive control well with only the same volume of DMSO as the compound. • (4) Min signal was the negative control well with only the culture medium.

JAK3 = target: T2, JAK3 (Homo sapiens, UniProt P52333, cells depend on it, form not given); test: JAK family kinase selectivity assay, Ba/F3-TEL-JAK3 cell proliferation; assay type: cell-based; details: read-out: Ba/F3 Cell IC50 JAK3; Ba/F3-TEL-JAK3, 72 h
T2 construct: fused on or other part: N-terminal part of TEL (ETV6) as oligomerising partner; P41212 (Transcription factor ETV6)
From the text: as §1, §2, §3, §4, §5, §6, §7

[1] = system: IFN-α-induced STAT phosphorylation; test: IFN-α-induced STAT phosphorylation in human whole blood; assay type: cell-based; details: human whole blood, 20 ng/ml IFN-α, pSTAT5 in CD3-positive cells; read-out: IC50, IFN-α inflammatory pathway (IFN-α-induced STAT phosphorylation)
From the text: The cytokine receptor attached to TYK2 mediates the signaling of type 1 interferon (IFN-α), which has been identified as the most important inflammatory factor of the autoimmune system. Human whole blood is induced with IFN-α, and TYK2 from lymphocytes in whole blood triggered STAT phosphorylation, which mediated subsequent inflammatory signaling. Therefore, TYK2 inhibitors have an inhibitory effect on IFN-α signaling, and the stronger the TYK2 inhibitory activity, the lower the level of STAT phosphorylation, and the stronger the corresponding anti-inflammatory effect.
In this experiment, the ability of the compounds to inhibit IFN-α-induced STAT phosphorylation in human whole blood were tested, and the IC50 values were calculated. The anti-inflammatory activity of the compounds was evaluated at the tissue level and evaluation of the inhibitory activity of compounds on the IFN-α inflammatory pathway based on the IC50 value.
The tested compound, powder and stored at room temperature, prepared into 10 mM stock solution with DMSO and stored at −80° C. in the refrigerator.
1× Fix/Lysis solution preparation: 5× Fix/Lysis and ddH2O were diluted according to 1:4 and preheated in 37° C. incubator, waiting for use.
Flow cytometric staining buffer preparation: 1 g of bovine serum albumin (BSA) and 1 mL of EDTA (0.5 M) solution were added to 500 mL of phosphate buffer solution (PBS) and stored at 4° C. in the refrigerator.
Compound dilution solution: 0.5 g of bovine serum albumin (BSA) was added to 500 mL of phosphate buffer solution (PBS), and stored at 4° C. in the refrigerator.
50 μg/mL IFN-alpha was diluted to 400 ng/mL with Compound Diluent and set aside.
67.5 μL of human whole blood was added to a 96-well plate using a 300 μL electric volley gun. 3.5 μL of prepared test compound was added, mixed well and placed in the cell culture incubator. After 60 min incubation, 400 ng/mL IFN-α (Biolegend 592702, final concentration 20 ng/ml) was added. The obtained was mixed well and placed in the cell culture incubator to continue incubation for 15 min.
After cytokine stimulation, 5 ul of PE-CD3 (BD 555333) antibody was added to each well, mixed and incubation was continued at 4° C. in the refrigerator. At the end, whole blood was transferred to a 96-well deep-well plate using a volley gun, pre-warmed 1× Fix/Lysis solution was added, and cells were lysed and fixed for 12 minutes at 37° C. in an incubator. After being washed, 400 μL of Perm III solution was added, vortexed and incubated on ice for 30 minutes. Cells were then stained by 100 μL of APC-pSTAT5 (1:100) antibody for 50 min at room temperature. This was followed by flow-through instrumentation. The expression of pSTAT5 was quantified by median fluorescence intensity after gating the CD3-positive signaling cluster.

[2] = In vivo pharmacokinetic experiment in rats (oral); set-up: species or system SD rats; details: 5 mg/kg
Protocol: Experimental method: Healthy male SD rats were randomly grouped into 3 rats in each group and given the test compound orally. The rats were fasted for 12 h before the gavage experiment, and drank water freely, and were fed uniformly for 4 h after the administration of the compounds. Before (0 h) and 0.25, 0.5, 1.0, 2.0, 4.0, 6.0, 8.0 and 24 h after the administration of the test compounds, 0.2 mL of blood was collected from the jugular vein at the above set time points and placed in EDTA-K2 tubes, and the whole blood was collected and stored temporarily in an ice-water bath, and then centrifuged at 11,000 rpm for 5 min within 30 min, the plasma was separated, and frozen at −70° C. in a refrigerator for testing.

[3] = Solubility in water (at pH=7); assay type: physicochemical
From the text: Test Example 6: Solubility of the Compounds of the Invention in Water (at pH=7)

[4] = dogs, 2 mg/kg, literature values; cited from earlier work
TYK2 = target: T3, TYK2 (Homo sapiens, UniProt P29597, E957D); test: TYK2 kinase activity inhibition assay (Ba/F3-FL-TYK2-E957D cell proliferation, CellTiter-Glo); assay type: cell-based; details: 72 h
T3 construct: host or cells: Ba/F3 (murine B lymphocytes)
Protocol: The TYK2 kinase gene was introduced into wild-type murine-derived B lymphocytes (BaF3) to construct the Ba/F3-FL-TYK2-E957D stable cell line.
In this experiment, the inhibitory effect of the compounds on the proliferation of Ba/F3-FL-TYK2-E957D cells were tested, apoptosis was detected, and the IC50 value was calculated. The inhibitory activity of the compounds against TYK2 kinase was evaluated based on the IC50 value.
as §3
Compounds were prepared into dilute solutions which was 1000 times of the final concentration. The compound was prepared into 20-times of the final concentration by diluting the compound with culture medium. 2 ul of 1000-times compound was added to per well to 98 ul of culture medium.
Cells (provided by Sundia Pharmaceutical Technology (Shanghai) Co., Ltd.) were resuspended and counted using an automated cell counter. The cell suspension was diluted to the desired density based on BaF3 seeding density of 2000 cells per well. Each well was plated with 95 ul of cells and incubated at 37° C. for stable equilibrium. 5 ul of 20-times compound was added to each well, with the wells to which the same volume of DMSO was added as a control.
The cell plate was equilibrated to room temperature. 40 ul CellTiter-Glo® Reagent was added to each well, shaken for 2 minutes and allowed to stand for 10 minutes. Detected with SpectraMax Paradigm.
• (1) IC50 was calculated using GraphPad Prism 5. • (2) % Inh=(Max signal−Compound signal)/(Max signal−Min signal)×100. • (3) Max signal was the positive control well with only the same volume of DMSO as the compound. • (4) Min signal was the negative control well with only the culture medium.

T3 sequence (P29597 whole entry E957D): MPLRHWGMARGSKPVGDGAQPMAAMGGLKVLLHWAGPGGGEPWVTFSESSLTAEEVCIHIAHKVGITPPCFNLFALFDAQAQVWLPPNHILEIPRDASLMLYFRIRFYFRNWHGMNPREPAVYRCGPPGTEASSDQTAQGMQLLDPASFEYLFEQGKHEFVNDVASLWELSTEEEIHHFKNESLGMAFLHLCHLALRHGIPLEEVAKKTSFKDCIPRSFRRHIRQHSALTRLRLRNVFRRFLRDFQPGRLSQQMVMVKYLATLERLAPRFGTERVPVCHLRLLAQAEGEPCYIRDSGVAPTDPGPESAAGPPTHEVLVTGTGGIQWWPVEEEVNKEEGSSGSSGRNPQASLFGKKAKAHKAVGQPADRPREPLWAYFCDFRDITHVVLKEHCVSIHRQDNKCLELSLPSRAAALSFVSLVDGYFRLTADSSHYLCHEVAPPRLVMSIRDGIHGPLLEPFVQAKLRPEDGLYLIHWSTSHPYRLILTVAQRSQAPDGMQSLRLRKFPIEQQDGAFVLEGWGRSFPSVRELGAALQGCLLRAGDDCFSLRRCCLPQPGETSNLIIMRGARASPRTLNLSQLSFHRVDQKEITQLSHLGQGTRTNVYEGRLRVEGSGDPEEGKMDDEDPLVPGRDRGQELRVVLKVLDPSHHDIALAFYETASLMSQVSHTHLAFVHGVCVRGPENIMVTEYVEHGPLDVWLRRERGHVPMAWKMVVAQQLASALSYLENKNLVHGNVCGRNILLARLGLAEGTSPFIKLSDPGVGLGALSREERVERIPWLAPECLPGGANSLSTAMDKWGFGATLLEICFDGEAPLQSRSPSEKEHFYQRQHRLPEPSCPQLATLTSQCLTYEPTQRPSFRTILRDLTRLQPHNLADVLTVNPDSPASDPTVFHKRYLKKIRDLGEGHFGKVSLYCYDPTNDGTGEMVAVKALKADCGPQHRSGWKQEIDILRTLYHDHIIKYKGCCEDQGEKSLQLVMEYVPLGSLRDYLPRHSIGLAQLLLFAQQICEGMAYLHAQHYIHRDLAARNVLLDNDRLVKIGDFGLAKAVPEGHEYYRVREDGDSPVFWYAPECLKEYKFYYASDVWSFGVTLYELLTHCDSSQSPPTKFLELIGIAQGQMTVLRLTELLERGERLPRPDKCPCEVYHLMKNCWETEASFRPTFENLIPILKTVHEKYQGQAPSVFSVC
T2 sequence (P52333 822-1111 limits assumed, change not shown): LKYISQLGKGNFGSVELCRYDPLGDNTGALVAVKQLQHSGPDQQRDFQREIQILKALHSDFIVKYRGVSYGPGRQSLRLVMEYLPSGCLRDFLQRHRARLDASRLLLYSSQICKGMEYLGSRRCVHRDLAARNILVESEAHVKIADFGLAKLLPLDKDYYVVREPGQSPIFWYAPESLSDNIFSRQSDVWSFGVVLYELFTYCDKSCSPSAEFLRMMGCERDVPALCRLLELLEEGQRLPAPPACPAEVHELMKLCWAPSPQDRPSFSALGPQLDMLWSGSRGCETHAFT
T1 sequence (O60674 849-1132 limits assumed, change not shown): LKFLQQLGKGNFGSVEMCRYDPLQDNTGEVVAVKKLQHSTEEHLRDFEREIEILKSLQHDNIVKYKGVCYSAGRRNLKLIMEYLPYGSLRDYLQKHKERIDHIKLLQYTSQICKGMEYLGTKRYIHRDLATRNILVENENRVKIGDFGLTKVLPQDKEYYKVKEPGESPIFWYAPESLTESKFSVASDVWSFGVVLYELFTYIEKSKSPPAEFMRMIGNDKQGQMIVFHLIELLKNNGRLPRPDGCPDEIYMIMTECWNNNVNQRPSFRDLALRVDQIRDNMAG

[2H]C([2H])([2H])NC(=O)c1nnc(NC(=O)C2CC2)cc1Nc1cccc(-c2ncn(C)n2)c1OC [BMS-986165, Deucravacitinib, reference compound]
GI50 (JAK2): > 1000 nM
GI50 (JAK3): > 1000 nM
IC50 [1]: 23.2 nM
AUC [2]: 2804 ngh/mL
F [2]: 28.5%
Cmax ([2]; male, SD, rat, plasma): 229 ng/mL
MRT ([2]; male, SD, rat, plasma): 6.43 h
half-life ([2]; male, SD, rat, plasma): 3.68 h
Solubility ([3]; pH 7, water, read-out: Solubility): 8.2 µg/mL (≈ 19.3 µM)
AUC [4]: 1312 ngh/mL
Cmax [4]: 222 ng/mL
F [4]: 35.5%
T1/2 [4]: 6.21 h

CN=S(C)(=O)c1cc(F)c(N)nc1Nc1cc(NC(=O)C2CC2)nnc1C(=O)NC (stereo not shown) [Example 22, 4-((6-amino-3-(N,S-dimethylsulfoximino)-5-fluoropyridin-2-yl)amino)-6-(cyclopropylcarboxamido)-N-methylpyridazine-3-carboxamide]
IC50 [1]: 13 nM

CN=S(C)(=O)c1cc(Cl)c(N)nc1Nc1cc(NC(=O)C2CC2)nnc1C(=O)NC (stereo not shown) [Example 23]
IC50 (TYK2): 2 nM
IC50 [1]: 8.1 nM

CN=S(C)(=O)c1cc(Br)c(N)nc1Nc1cc(NC(=O)C2CC2)nnc1C(=O)NC (stereo not shown) [Example 24, 4-((6-amino-5-bromo-3-(N,S-dimethylsulfoximino)pyridin-2-yl)amino)-6-(cyclopropylcarboxamido)-N-methylpyridazine-3-carboxamide]
IC50 (TYK2): 1.3 nM
IC50 [1]: 7.5 nM

CN=S(C)(=O)c1cc(C)c(N)nc1Nc1cc(NC(=O)C2CC2)nnc1C(=O)NC (stereo not shown) [Example 26, 4-((6-amino-3-(N,S-dimethylsulfoximino)-5-methylpyridin-2-yl)amino)-6-(cyclopropylcarboxamido)-N-methylpyridazine-3-carboxamide]
IC50 [1]: 9.4 nM

CN=S(C)(=O)c1cc2c(Cl)c[nH]c2nc1Nc1cc(NC(=O)C2CC2)nnc1C(=O)NC (stereo not shown) [Example 32, 4-((3-chloro-5-(N,S-dimethylsulfoximino)-1H-pyrrolo[2,3-b]pyridin-6-yl)amino)-6-(cyclopropylamido)-N-methylpyridazine-3-carboxamide]
IC50 (TYK2): 0.62 nM
IC50 [1]: 16.1 nM

[2H]C([2H])([2H])NC(=O)c1nnc(NC(=O)C2CC2)cc1Nc1nc(N)c(Cl)cc1[S@@](C)(=O)=NC [Example 38]
Solubility [3]: 47 µg/mL (≈ 103 µM)
